Data from patent publication US11708346B2, “Treatment and prevention of neuropathic pain with P2Y14 antagonists” (Saint Louis University, priority 2019, dated 2023).

How the values were obtained:
[1] = test system: CCI-induced mechano-allodynia; test: Chronic constriction injury (CCI) of the sciatic nerve, mechano-allodynia by von Frey filaments; assay type: in vivo, mouse; conditions: for Reversal of CCI-induced mechano-allodynia: ipsilateral hind paw; for Effect at 0.5 h (% ± SD), percent inhibition of mechano-allodynia / Effect at 1 h (% + SD), percent inhibition of mechano-allodynia / Effect at 2 h (% ± SD), percent inhibition of mechano-allodynia / Effect at 3 h (% ± SD), percent inhibition of mechano-allodynia / Effect at 5 h (% ± SD), percent inhibition of mechano-allodynia: n = 3
Procedure: Chronic constriction injury (CCI) to the sciatic nerve was performed using the Bennett model. […] Then the animals were placed on a sterile surgical field and the skin was wiped with topical antiseptic, Dermachlor solution (0.2% chlorhexidine gluconate). […] A small incision was created on the lateral side of the left hind limb parallel to the femur. The sciatic nerve was exposed and ligated on two sites about 1 mm apart above the trifurcation using silk sutures 6.0. The incision was closed with clips and lidocaine cream was applied.
Mice were acclimated to the testing mesh-rack for 30 min before behavioral measurements. All behavioral testing was performed in the morning. The baseline measurements were determined on day 0 before CCI procedure. On day 7 post-CCI, baseline behavior responses were assessed, beginning prior to drug administration. Following drug injection, the behaviors were evaluated at multiple time points. Mechano-allodynia was quantified according to the hind paw withdrawal response to von Frey filaments stimulation by the Dixon up-and-down method. […] In presence of a positive withdrawal response a lighter filament was applied. If a negative response occurred, a stronger filament was used. At least four readings are obtained after the first positive response and the pattern of response was converted to a 50% paw withdrawal threshold (PWT), using the method described by Chaplan et al., J. Neurosci.
Data are expressed as mean±SD and analyzed by two-tailed, two-way repeated measures ANOVA with Dunnett's post hoc comparisons to day 7 behavior. The percentage of reversal of peak CCI-induced pain afforded by each drug was calculated for each animal using their baseline and day 7 post CCI behavioral measures. % Reversal=(PWT(g)t−PWT(g)day7)/PWT(g)day0−PWT(g)day7)×100, where PWT(g)=paw withdrawal threshold, t=time after drug. […] All statistical analyses were performed using GraphPad Prism 8 (Graph Pad Inc., San Diego, Calif.). Significance was accepted at p<0.05.

mP2Y14R = molecular target: T1, mP2Y14R (Mus musculus, UniProt Q9ESG6); conditions: read-out: Mouse P2Y14R binding affinity (IC50); mP2Y14R in HEK293 cells, tracer 20
T1 sequence (Q9ESG6 1-338): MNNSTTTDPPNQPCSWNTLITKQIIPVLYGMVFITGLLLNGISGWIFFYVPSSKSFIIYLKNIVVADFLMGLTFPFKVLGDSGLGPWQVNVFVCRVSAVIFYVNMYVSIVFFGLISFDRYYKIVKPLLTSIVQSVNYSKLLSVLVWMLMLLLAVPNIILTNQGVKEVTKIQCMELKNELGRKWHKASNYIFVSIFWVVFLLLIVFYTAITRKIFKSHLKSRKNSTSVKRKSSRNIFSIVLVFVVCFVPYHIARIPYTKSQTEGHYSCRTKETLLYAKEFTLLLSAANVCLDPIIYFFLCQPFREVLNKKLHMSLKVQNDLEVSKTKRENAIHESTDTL

hP2Y14R = molecular target: T2, hP2Y14R (Homo sapiens, UniProt Q15391); test: Competitive fluorescent binding assay in whole CHO-hP2Y14R cells, tracer 20, flow cytometry; conditions: read-out: Human P2Y14R binding affinity (IC50)
T2 construct: expressed in transfected cells; host or cells: CHO
T2 sequence (Q15391 1-338): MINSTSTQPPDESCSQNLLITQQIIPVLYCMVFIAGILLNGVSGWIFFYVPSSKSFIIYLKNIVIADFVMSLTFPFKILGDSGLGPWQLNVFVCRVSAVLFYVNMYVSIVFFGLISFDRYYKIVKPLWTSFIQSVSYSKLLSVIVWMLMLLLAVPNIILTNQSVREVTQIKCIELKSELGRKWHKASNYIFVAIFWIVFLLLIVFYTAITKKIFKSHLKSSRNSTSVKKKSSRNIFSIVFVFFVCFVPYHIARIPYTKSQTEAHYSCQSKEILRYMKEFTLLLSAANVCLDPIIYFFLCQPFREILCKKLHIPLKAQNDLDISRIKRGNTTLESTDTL

[2] = 10 μmol/kg, i.p., day 7 post-CCI
[3] = 1 μmol/kg, i.p., day 7 post-CCI
[4] = 3 μmol/kg, i.p., day 7 post-CCI

SMILES | Reversal of CCI-induced mechano-allodynia [1, 2] | Effect at 0.5 h (% ± SD), percent inhibition of mechano-allodynia [1, 2] [%] | Effect at 1 h (% + SD), percent inhibition of mechano-allodynia [1, 2] [%] | Effect at 2 h (% ± SD), percent inhibition of mechano-allodynia [1, 2] [%] | Effect at 3 h (% ± SD), percent inhibition of mechano-allodynia [1, 2] [%] | Effect at 5 h (% ± SD), percent inhibition of mechano-allodynia [1, 2] [%] | IC50 (mP2Y14R) [nM] | IC50 (hP2Y14R) [nM] | further results
NCCOCCOCCOCCOCCOCCOCCC(=O)N1CCC(c2ccc(-c3cc(C(=O)O)cc4cc(-c5ccc(C(F)(F)F)cc5)ccc34)cc2)CC1 [Compound 21] | fully efficacious | – | – | – | – | – | – | – | Time of peak protection ([1]; 10 μmol/kg i.p., after injection): 1 to 2 h; Effect on paw withdrawal threshold at the contralateral hind paw ([1]; 10 μmol/kg, i.p., versus vehicle control): No effect
O=C(O)c1cc(-c2ccc(C3CCNCC3)cc2)cc(-n2cc(-c3ccc(C(F)(F)F)cc3)nn2)c1 [Compound 6] | – | 52.4 ± 9.6 | 67.4 ± 7.0 | 57.2 ± 13.3 | 31.9 ± 16.8 | 12.7 ± 13.2 | – | – | Effect at 0.5 h (% ± SD), percent inhibition of mechano-allodynia [1, 3]: 8.7 ± 15.1%; Effect at 1 h (% + SD), percent inhibition of mechano-allodynia [1, 3]: 18.7 ± 21.3%; Effect at 2 h (% ± SD), percent inhibition of mechano-allodynia [1, 3]: 18.7 ± 21.3%; Effect at 3 h (% ± SD), percent inhibition of mechano-allodynia [1, 3]: 8.7 ± 7.6%; Effect at 5 h (% ± SD), percent inhibition of mechano-allodynia [1, 3]: 8.7 ± 15.1%; Effect at 0.5 h (% ± SD), percent inhibition of mechano-allodynia [1, 4]: 44.6 ± 16.6%; Effect at 1 h (% + SD), percent inhibition of mechano-allodynia [1, 4]: 53.3 ± 24.2%; Effect at 2 h (% ± SD), percent inhibition of mechano-allodynia [1, 4]: 44.6 ± 16.6%; Effect at 3 h (% ± SD), percent inhibition of mechano-allodynia [1, 4]: 35.6 ± 11.7%; Effect at 5 h (% ± SD), percent inhibition of mechano-allodynia [1, 4]: 0.0 ± 0.0%; In vivo efficacy compared with a comparator compound ([1]; 10 μmol/kg i.p., 6 vs 7, 4 vs 1): no statistical difference; ED50 ([1]; Mus musculus, ip, read-out: ED50 at 1 h (95% CI), reversal of mechano-allodynia, i.p., 1 h post drug, day 7 post-CCI): 3.5 µmol/kg
C#CCCCCN1CCC(c2ccc(-c3cc(C(=O)O)cc4cc(-c5ccc(C(F)(F)F)cc5)ccc34)cc2)CC1 [Compound 3] | – | 52.4 ± 23.3 | 75.9 ± 15.0 | 42.7 ± 9.6 | 9.6 ± 16.7 | 0.0 ± 0.0 | 130 ± 30 | 76.3 ± 24.4 | Ratio of protection at 3 h divided by the protection at 5 h (duration of action) ([1]; 10 μmol/kg i.p.): 0.13
O=C(O)c1cc(O)c2ccc(-c3ccc(C(F)(F)F)cc3)cc2c1 [Compound 2] | reversed the allodynia | 23.4 ± 21.2 | 64.2 ± 24.9 | 59.8 ± 18.1 | 35.2 ± 22.2 | 0.0 ± 0.0 | 1600 ± 250 | 3200 ± 640 | –
CCC(=O)N1CCC(c2ccc(-c3cc(C(=O)O)cc4cc(-c5ccc(C(F)(F)F)cc5)ccc34)cc2)CC1 [Compound 5, 4-(4-(1-(Propionyl)piperidin-4-yl)phenyl)-7-(4-(trifluoromethyl)phenyl)-2-naphthoic acid] | – | 32.9 ± 5.7 | 77.2 ± 26.1 | 71.6 ± 19.8 | 55.7 ± 27.1 | 5.6 ± 6.4 | 38 | 41.8 ± 1.8 | –
